The target in the experiment is T1, murine Nurr1 receptor (Mus musculus, UniProt Q06219).
T1 construct: a cell line (N2A) endogenously expressing the murine Nurr1 receptor; host or cells: Neuro-2A (N2A) mouse neuroblastoma cells stably transfected with 8NBRE-luciferase
T1 sequence (Q06219 whole entry): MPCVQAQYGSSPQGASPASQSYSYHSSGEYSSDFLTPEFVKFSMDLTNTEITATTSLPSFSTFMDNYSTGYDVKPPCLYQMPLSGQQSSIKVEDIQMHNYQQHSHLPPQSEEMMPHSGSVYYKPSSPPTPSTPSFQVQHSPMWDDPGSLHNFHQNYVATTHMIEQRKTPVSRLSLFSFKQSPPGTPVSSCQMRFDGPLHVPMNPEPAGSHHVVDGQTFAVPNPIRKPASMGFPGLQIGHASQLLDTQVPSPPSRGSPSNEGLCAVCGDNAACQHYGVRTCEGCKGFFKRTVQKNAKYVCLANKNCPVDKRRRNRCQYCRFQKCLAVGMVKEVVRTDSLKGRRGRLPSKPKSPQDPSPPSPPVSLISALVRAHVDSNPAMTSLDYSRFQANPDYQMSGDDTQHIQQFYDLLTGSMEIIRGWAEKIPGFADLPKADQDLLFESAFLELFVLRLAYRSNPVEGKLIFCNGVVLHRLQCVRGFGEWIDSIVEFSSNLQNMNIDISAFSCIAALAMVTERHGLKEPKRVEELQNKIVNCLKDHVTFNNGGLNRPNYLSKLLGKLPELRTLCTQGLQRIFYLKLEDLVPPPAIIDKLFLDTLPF
Put plainly: In vitro activity on N2A cells (Neuro-2A stably transfected with 8NBRE-luciferase reporter). Type of experiment: cell-based. The conditions noted are these: N2A-8NBRE cells, 24 hours incubation with product. As to the method:
The activity of the compounds according to the invention was evaluated on a cell line (N2A) endogenously expressing the murine Nurr1 receptor and stably transfected with the NOT binding response element (NBRE) coupled to the luciferase reporter gene. The EC50 values are between 0.01 and 1000 nM. The tests were performed according to the procedure described hereinbelow.
The cell line Neuro-2A is obtained from a standard commercial source (ATCC). The clone Neuro-2A was obtained from a spontaneous tumour originating from a strain of albino mice A by R. J Klebe et al. This line Neuro-2A is then stably transfected with 8NBRE-luciferase. The N2A-8NBRE cells are cultured to the point of confluence in 75 cm^2 culture flasks containing DMEM supplemented with 10% foetal calf serum, 4.5 g/L of glucose and 0.4 mg/ml of geneticin. After culturing for one week, the cells are recovered with 0.25% trypsin for 30 seconds and then resuspended in DMEM without phenol red, containing 4.5 g/L of glucose and 10% Hyclone defatted serum, and placed in white, transparent-based 96-well plates. The cells are deposited at a rate of 60 000 per well in 75 μL for 24 hours before adding the products. The products are applied in 25 μL and incubated for a further 24 hours. On the day of measurement, an equivalent volume (100 μL) of Steadylite is added to each well, and the wells are then left for 30 minutes to obtain complete lysis of the cells and maximum production of the signal. The plates are then measured in a microplate luminescence counter, after having been sealed with an adhesive film. The products are prepared in the form of a 10^−2 M stock solution, and then diluted in 100% of DMSO. Each concentration of product is prediluted in culture medium before incubation with the cells thus containing 0.625% final of DMSO.
A general note: In a reporter assay the amount or activity of a reporter protein is the signal.
Turning to `O=C(Nc1nncs1)c1cn2cc(-c3cc[nH]n3)ccc2n1` [Compound 58, 6-(1H-Pyrazol-3-yl)-N-(1,3,4-thiadiazol-2-yl)imidazo[1,2-a]pyridine-2-carboxamide], a half-maximal effect (EC50) was put at 5.3 nM.
The compound `O=C(Nc1nncs1)c1cn2cc(-c3cc[nH]c3)ccc2n1` [Compound 51, 6-(1H-Pyrrol-3-yl)-N-(1,3,4-thiadiazol-2-yl)imidazo[1,2-a]pyridine-2-carboxamide] came in with a concentration for a half-maximal effect (EC50) of 1.5 nM.
As for `O=C(Nc1nccs1)c1cn2cc(-c3cc[nH]n3)ccc2n1` [Compound 56, 6-(1H-Pyrazol-3-yl)-N-(thiazol-2-yl)imidazo[1,2-a]pyridine-2-carboxamide], the figure is 1 nM.
As for `O=C(Nc1cc[nH]n1)c1cn2cc(-c3ccccn3)ccc2n1` [Compound 10, N-(1H-Pyrazol-3-yl)-6-(pyridin-2-yl)imidazo[1,2-a]pyridine-2-carboxamide], the figure is 21 nM; as for `O=C(Nc1ccon1)c1cn2cc(-c3ccc(CO)o3)ccc2n1` [Compound 22, 6-[5-(Hydroxymethyl)furan-2-yl]-N-(isoxazol-3-yl)imidazo[1,2-a]pyridine-2-carboxamide], 2 nM; as for `O=C(Nc1cccc(F)n1)c1cn2cc(-c3ccoc3)ccc2n1` [Compound 36, N-(6-Fluoropyridin-2-yl)-6-(furan-3-yl)imidazo[1,2-a]pyridine-2-carboxamide], 0.4 nM.
The same measure for `O=C(Nc1nccs1)c1cn2cc(-c3ccccn3)ccc2n1` [Compound 7]: 0.8 nM.
On to `Nc1cccc(-c2ccc3nc(C(=O)Nc4ccccn4)cn3c2)n1` [Compound 1, 6-(6-Aminopyridin-2-yl)-N-(pyridin-2-yl)imidazo[1,2-a]pyridine-2-carboxamide], for which the EC50 was 16 nM.
As to `O=C(Nc1ccccn1)c1cn2cc(-c3c[nH]cn3)ccc2n1` [Compound 2, 6-(1H-Imidazol-4-yl)-N-(pyridin-2-yl)imidazo[1,2-a]pyridine-2-carboxamide], the EC50 came to 1.5 nM.

A word on the EC50: it is the concentration at which the effect is half-maximal. Lower therefore signals greater potency.

Source of the values: patent US20100317686A1, “N-HETEROCYCLIC-6-HETEROCYCLIC-IMIDAZO[1,2-a]PYRIDINE-2-CARBOXAMIDE DERIVATIVES, PREPARATION AND THERAPEUTIC USE THEREOF” (sanofi-aventis, priority 2008, published 2010).
